In patent publication US20170007633A1, “TREATMENT OF NEURODEGENERATIVE AND NEURODEVELOPMENTAL DISEASES BY INHIBITION OF THE a2-Na/K ATPase/a-ADDUCIN COMPLEX” (PRESIDENT AND FELLOWS OF HARVARD COLLEGE, priority 2014, published 2017):
Entries after “also recorded” stand apart in the source; their conditions may differ.

Assays:
SOD1^G93A mice = assay type: in vivo
Procedure: Transgenic mice overexpressing mutant G93A human superoxide dismutase 1 (Jackson Laboratory stock#002726). α2-Na/K ATPase null heterozygous (provided by Dr. Jerry B. Lingrel) and C57BL6 (Charles River) were used. All analysis was done with littermate mice derived from SOD1^G93A heterozygous mating with non-transgenic wild type and heterozygous α2-Na/K ATPase mice. All animal experiments were conducted under the institutional guidelines and were approved by the Institutional Animal Care and Use Committee (IACUC).
All morphological studies were performed as described in Chandra et al., Cell 123:383-396 (2005), which is incorporated by reference. Briefly, mice were deeply anesthetized and perfused with 4% paraformaldehyde in phosphate buffer. Spinal cords were post-fixed in the same fixative for 4 hours and processed for cryoprotective embedding. Immunohistochemistry analyses were carried out on 30 um cryosections from spinal cords with the indicated antibodies. […] For lentiviral mediated RNAi a minimum of 20 sections were quantified for surviving motor neurons in the injected and non-injected ventral horns from Nissl stained and immunofluorescence labeled sections.

[1] = test system: motor neurons co-cultured with SOD1^G93A astrocytes (Na/K ATPase); assay: co-culture of SOD1^G93A or control astrocytes with primary motor neurons, pharmacological inhibition of Na/K ATPase; settings: for impairment of dendrite morphology in motor neurons induced by SOD1^G93A astrocytes / motor neuron cell death induced by SOD1^G93A astrocytes: final concentration of 1 μm; for motor neuron cell death induced by SOD1^G93A astrocytes: vehicle 56%, 7 days of co-culture
Procedure: Monolayer astrocytes culture from P2 SOD1^G93A and non-transgenic littermate mice were prepared as described in Di Giorgio et al., Nat. Neurosci. 10:608-614 (2007) and Nagai et al., Nat. Neurosci. 10:615-622 (2007), each of which is incorporated by reference. Astrocytes were plated in DMEM (GIBCO) supplemented with 10% FBS containing 100 U/ml penicillin and […] for two weeks or until confluent. Once confluent, cells were replated onto glass cover slips precoated with poly-D-lysine at a density of 40,000 cells/well in a 24-well dish. For RNAi experiment astrocyte cultures were transfected with RNAi or control U6 plasmid using Lipofectamine 2000 (Invitrogen) according to the guidelines of the manufacturer four days prior to co-culturing with motor neurons.
Spinal motor neuronal cultures from E12.5 wild-type rodents were performed as described in Gingras et al., J. Neurosci. Methods 163:11-118 (2007), which is hereby incorporated by reference. Cultures were plated astrocyte monolayers at 12,000 cells/well in Neurobasal-A medium (GIBCO) supplemented with 2% B-27 serum free supplement and 0.5 mM glutamine; DMEM/F12 (3:1, v/v ratio) with a cocktail of trophic factors composed of 0.5 ng/ml glia-derived neurotrophic factor, 1 ng/ml brain-derived neurotrophic factor and 10 ng/ml ciliary neurotrophic factor (trophic factor cocktail, R&D Systems).
Motor neurons were fixed after 7 days of co-cultures with astrocytes and immunostained with Islet1, MAP2 and Hoechst 33258 and subjected to cell survival. Approximately 150 cells were counted per cover slip. For pharmacological inhibition of Na/K ATPase in co-cultures. […] For motor neuron morphology images were taken using a NIKON eclipse TE2000 epifluorescence microscope using a digital CCD camera (DIAGNOSTIC instruments) and imported into the SPOT imaging software. Approximately 40 cells were analyzed per cover slip.

Row | Substance | motor neurons per ventral horn section (SOD1^G93A mice; 1 mg/kg intraperitoneal on a 48-hour cycle from 80 days, toward end stage (130±5 days), vehicle 4.66±0.40) | motor neuron survival / degeneration in SOD1^G93A mice (SOD1^G93A mice; intraperitoneal digoxin compared to vehicle) | non-cell autonomous cell death and dendrite abnormalities induced by SOD1^G93A astrocytes (FIG. 5) [1] | survival or morphology of motor neurons co-cultured with control (non-transgenic) astrocytes [1] | impairment of dendrite morphology in motor neurons induced by SOD1^G93A astrocytes [1] | motor neuron cell death induced by SOD1^G93A astrocytes [1]
1 | digoxin | 7.20±0.21 | protected motor neurons from degeneration; also recorded: significantly increases the number of motor neurons | neuroprotective | did not alter survival or morphology of motor neurons; also recorded: did not alter motor neuron survival or morphology | prevented impairment of dendrite morphology | 19%
2 | ouabain | – | – | neuroprotective | did not alter survival or morphology of motor neurons; also recorded: did not alter motor neuron survival or morphology | prevented impairment of dendrite morphology | 22%
